In US20180200233A1, “COMPOSITIONS FOR PREVENTING CANCERS ASSOCIATED WITH HUMAN PAPILLOMA VIRUSES” (Loma Linda University, priority 2015, published 2018):

Columns and labels:
GST-E6/His-caspase 8 = target: T1, GST-E6/His-caspase 8 (Human papillomavirus type 16, UniProt P03126); experiment: AlphaScreen bead-based assay, GST-E6/His-caspase 8 binding; set-up: species or system HPV 16; conditions: for inhibition of E6/caspase 8 binding (in words): FIG. 2A, primary screen at 10 μM
T1 construct: made in house
Procedure: (§1) FIGS. 2A-C are graphs providing data regarding inhibition of protein-protein interactions by 3-(1H-indol-1yl)propan-1-amine (1), three benzimidazole derivatives (2-4), and spinacine (5). Compounds, at the indicated concentrations (1.4 μM to 3.2 mM) were tested using a bead-based screening assay for their ability to inhibit three different protein/protein interactions: (FIG. 2A) GST-E6/His-caspase 8; (FIG. 2B) GST-E6/HisE6AP; and (FIG. 2C) GST-caspase 8/His-caspase 8. Binding in the presence of 1.4 μM of the test compound was set at 100%. Experiments were performed in triplicate, and error bars indicate the standard deviation.
HPV E6 binds to caspase 8 (Garnett, T. O., M. Filippova, and P. J. Duerksen-Hughes, Accelerated degradation of FADD and procaspase 8 in cells expressing human papilloma virus 16 E6 impairs TRAIL-mediated apoptosis. Cell death and differentiation, 2006. 13(11): p. 1915-26), and myricetin can block the E6/caspase 8 interaction in vitro (Yuan, C. H., et al., Small molecule inhibitors of the HPV16-E6 interaction with caspase 8. Bioorganic & medicinal chemistry letters, 2012. 22(5): p. 2125-9). A bead-based assay based on AlphaScreen™ technology (Perkin-Elmer) is used to identify inhibitors of the E6/caspase 8 interaction (Yuan, C. H., et al., Small molecule inhibitors of the HPV16-E6 interaction with caspase 8. Bioorganic & medicinal chemistry letters, 2012. 22(5): p. 2125-9). The ActiProbe 2K (2,000 compounds) library was screened using the same approach. […] Analysis of the structures and physical/chemical characteristics of those molecules led to the selection of five additional compounds: 3-(1H-indol-1-yl)propan-1-amine methanesulfonate (1), benzimidazole (2), 1H-benzimidazole-1-methanol (3), 2-(methoxymethyl)-1H-benzimidazole (4), and spinacine (5) for further study (FIG. 1).
(§2) To determine the dose-responsiveness of these five compounds, variable concentrations of those small molecules were first tested for their ability to inhibit E6/caspase binding. […] These molecules, which had been selected for their ability to interfere with E6/caspase 8 binding, were then tested to determine if they could also affect other interactions of E6, such as its binding to E6-associated protein (E6AP). The E6/E6AP interaction is required for the E6-mediated acceleration of p53 degradation (Huibregtse, J. M., M. Scheffner, and P. M. Howley, A cellular protein mediates association of p53 with the E6 oncoprotein of human papillomavirus types 16 or 18. The EMBO journal, 1991. 10(13): p. 4129-35).
Alpha-Screen™ technology was used to assess the interactions between GST-E6, GST-caspase 8, His-E6AP, and His-caspase 8. Binding assays were performed in white 384-well plates (Perkin-Elmer) in a total volume of 25 μl as previously described (Tungteakkhun, S. S., et al., The interaction between human papillomavirus type 16 and FADD is mediated by a novel E6 binding domain. Journal of virology, 2008. 82(19): p. 9600-14). Briefly, 5 μl (50 ng) of GST-E6 and 5 μl (87.5 ng) of His-caspase 8 were included in each reaction mixture with 5 μl blocking buffer (0.5 mg BSA, 0.5% Tween 20 in PBS) in the absence or presence of 10 μM of each test chemical. […] The mixture was incubated in the dark at room temperature overnight, and the emitted signal was detected using the Envision Multilabel plate reader (Perkin-Elmer). In the presence of test chemicals, the binding affinity was calculated as a percentage of the binding in the presence of carrier only (DMSO).

[1] = target: T2, GST-caspase 8/His-caspase 8 (Homo sapiens, UniProt Q14790); experiment: AlphaScreen counter-screen, GST-caspase 8/His-caspase 8 binding; conditions: for inhibition of caspase 8/caspase 8 interaction (in words): FIG. 2C
T2 construct: pTriEx-Caspase-8 DED plasmids; fused on or other part: GST tag on one copy, His tag on the other (AlphaScreen bead handles)
Procedure: as §1
To ask whether this inhibition was specific, a counter-screening assay was employed the ability of candidates to inhibit the binding of GST-caspase 8 to His-caspase 8 was assessed; those that did were to be eliminated. In this counter-screening assay, the materials in each well were the same as in the primary screen, with the exception that GST-caspase 8 replaced GST-E6.
(§3) Alpha-Screen™ technology was used to assess the interactions between GST-E6, GST-caspase 8, His-E6AP, and His-caspase 8. Binding assays were performed in white 384-well plates (Perkin-Elmer) in a total volume of 25 μl as previously described (Tungteakkhun, S. S., et al., The interaction between human papillomavirus type 16 and FADD is mediated by a novel E6 binding domain. Journal of virology, 2008. 82(19): p. 9600-14). Briefly, 5 μl (50 ng) of GST-E6 and 5 μl (87.5 ng) of His-caspase 8 were included in each reaction mixture with 5 μl blocking buffer (0.5 mg BSA, 0.5% Tween 20 in PBS) in the absence or presence of 10 μM of each test chemical. Members of the library were present at […] in DMSO. After a one-hour incubation of the mixture at room temperature, 5 μl donor beads and 5 μl acceptor beads (Perkin-Elmer) were added to each well according to the manufacturer's protocol. The mixture was incubated in the dark at room temperature overnight, and the emitted signal was detected using the Envision Multilabel plate reader (Perkin-Elmer). In the presence of test chemicals, the binding affinity was calculated as a percentage of the binding in the presence of carrier only (DMSO).

GST-E6/His-E6AP = target: T3, GST-E6/His-E6AP (Human papillomavirus type 16, UniProt P03126); experiment: AlphaScreen bead-based assay, GST-E6/His-E6AP binding; set-up: species or system HPV 16; conditions: for inhibition of E6/E6AP interaction (in words): FIG. 2B
T3 construct: made in house
Procedure: as §1, §2, §3

[2] = test system: UPCI-SCC90-UP-Clone 35 (#90) cells; experiment: MTT cell viability, HPV+ HNSCC cell line #90 with TRAIL; type: cell-based; conditions: all selected cell lines; TRAIL as high as 100 ng/ml, FIG. 7A
Procedure: FIGS. 7A-E are graphs showing myricetin and spinacine (5) re-sensitized HPV^+, but not HPV^−, head and neck cancer cell lines to treatment with TRAIL. (FIG. 7A) Both HPV^− and HPV^+ HN cancer cell lines display resistance to TRAIL treatment. HPV^− (#84) (Myricetin—FIG. 7B; Spinacine—FIG. 7C) and HPV^+ (#90) (FIG. 7D; Spinacine—FIG. 7E) head and neck cancer cell lines (2×10^4 cells per well) were seeded into 96-well plates and allowed to incubate overnight, then cells were pre-treated with myricetin (0-200 μM) or spinacine (0-100 μM) for 4 h. […] of TRAIL, along with cycloheximide (5 μg/ml) was added and cells were allowed to incubate overnight. Cell viability was measured by the MTT assay, and the viability of cells untreated with small molecules was set at 100%. Experiments were performed in triplicate, and error bars indicate the standard deviation.
As shown above, myricetin and spinacine sensitize SiHa cells to TRAIL and chemotherapy drugs. […] Other types of HPV^+ cancer cells were examined, and in particular, head and neck squamous cell carcinoma (HNSCC) cells can also be sensitized in this manner. […] For the combination experiments, 50 ng/ml TRAIL was applied in combination with either myricetin (0-200 μM) or spinacine (0-100 μM). […] In contrast […], TRAIL-induced cell death was enhanced 30% in UPCI-SCC90-UP-Clone 35, #90. Furthermore, 40 μM spinacine was able to enhance TRAIL-induced cell death in the HPV^+ #90 cell lines up to 50%.
The extracellular domain of human TRAIL was cloned into a pTriEx expression plasmid containing N-terminal Hisx6 tag. His-TRAIL was expressed in the E. coli BL-21 pLys strain and purified as previously described. Doxorubicin and cisplatin were purchased from Sigma. His-TRAIL, doxorubicin, and cisplatin were diluted in PBS to the desired concentration before using. […] All experiments were repeated at least three times (three biological replicates, carried out on different days), with each experimental group measured in triplicate within each of these individual experiments. […]

SiHa cells = experiment: MTT cell viability, SiHa cells, TRAIL-induced apoptosis; type: cell-based, human; conditions: SiHa cells in comparison to U2OS cells; with cycloheximide 5 μg/ml, FIG. 3A
Procedure: FIGS. 3A-E are graphs providing data regarding resistance of HPV^+ SiHa cells to TRAIL-, cisplatin- and […] apoptosis, in the presence and absence of small molecules as disclosed herein. (FIG. 3A) HPV^+ SiHa cells are resistant to TRAIL-induced apoptosis as compared to the human osteosarcoma cell line U2OS. Cells (2×10^4 cells per well) were seeded into a 96-well plate, allowed to incubate overnight, and then treated with indicated concentration of TRAIL in the presence of cycloheximide (5 μg/ml). The viability of cells was measured after overnight incubation using the MTT assay; the viability of cells untreated with TRAIL was set at 100% for each group. (FIG. 3B) The indicated concentrations of three small molecules were added to SiHa cells, and an MTT assay was preformed after overnight incubation. The viability of cells untreated with small molecules was set as 100%. (FIG. 3C) The indicated concentrations of myricetin or spinacine were added 4 h prior to TRAIL (100 ng/ml) in the presence of cycloheximide (5 μg/ml) and incubated at 37° C. overnight. The viability of cells untreated with small molecules was set at 100%. (FIG. 3D and FIG. 3E) SiHa cells (2×10^4 cells per well) were seeded into a 96-well plate and allowed to incubate overnight. 100 μM of myricetin and 50 μM of spinacine were added 4 h prior to either (FIG. 3D) doxorubicin or (FIG. 3E) cisplatin. Cell viability was measured after overnight incubation using the MTT assay, and the viability of cells untreated with either myricetin or spinacine was set at 100%. Experiments were performed in triplicate, and error bars indicate the standard deviation.
FIGS. 5A-B are graphs showing myricetin and spinacine (5) re-sensitized HPV^+, but not HPV^−, cells to treatment with TRAIL. SiHa (2×10^4 cells per well) and C33A cells (1×10^4 cells per well) were seeded into a 96-well plate and allowed to incubate overnight, then cells were pre-treated in the presence or absence of myricetin (100 μM) (FIG. 5A) or spinacine (50 μM) (FIG. 5B) for 4 h. The indicated concentration of TRAIL, along with cycloheximide (5 μg/ml) was added and cells were allowed to incubate overnight. Cell viability was measured by MTT assay, and the viability of cells untreated with TRAIL was set at 100%. Experiments were performed in triplicate, and error bars indicate the standard deviation.
The molecules were then tested to determine whether those that block E6/caspase 8 binding in vitro could also act in the context of a cell. SiHa cells are an HPV^+ cell line, derived from a cervical carcinoma, which serves as a commonly used model for HPV-associated malignancies. To determine whether HPV^+ SiHa cells are resistant to TRAIL-induced apoptosis, SiHa cells were treated with TRAIL and cell viability was assessed. TRAIL-sensitive, HPV^− U2OS cells served as a positive control. […] Myricetin and/or spinacine were tested to determine if they could sensitize these HPV^+ cells to TRAIL-induced apoptosis. […] Table 2 lists and compares the concentrations of the three tested compounds required to induce death in 50% of SiHa cells in the presence or absence of TRAIL.
The extracellular domain of human TRAIL was cloned into a pTriEx expression plasmid containing N-terminal Hisx6 tag. His-TRAIL was expressed in the E. coli BL-21 pLys strain and purified as previously described. Doxorubicin and cisplatin were purchased from Sigma. His-TRAIL, doxorubicin, and cisplatin were diluted in PBS to the desired concentration before using. To measure cell survival following treatment with TRAIL, cisplatin and doxorubicin, SiHa (2×10^4/well), C33A (1×10^4/well), and HNSCC cells (2×10^4/well) were seeded into 96-well plates and allowed to adhere overnight. Small molecules at the desired concentration were added and incubated at 37° C. for 4 h. As indicated, TRAIL, cisplatin or doxorubicin was then added. […]

[3] = bead-based assay, compounds tested 1.4 μM to 3.2 mM

T3 sequence (P03126 whole entry): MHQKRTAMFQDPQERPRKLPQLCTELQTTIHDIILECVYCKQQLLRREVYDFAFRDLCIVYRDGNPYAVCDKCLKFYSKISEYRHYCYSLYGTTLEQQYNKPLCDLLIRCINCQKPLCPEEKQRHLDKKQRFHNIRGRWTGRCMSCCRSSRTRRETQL
T1 sequence (P03126 whole entry): as above
T2 sequence (Q14790 whole entry, the tested form may be a part): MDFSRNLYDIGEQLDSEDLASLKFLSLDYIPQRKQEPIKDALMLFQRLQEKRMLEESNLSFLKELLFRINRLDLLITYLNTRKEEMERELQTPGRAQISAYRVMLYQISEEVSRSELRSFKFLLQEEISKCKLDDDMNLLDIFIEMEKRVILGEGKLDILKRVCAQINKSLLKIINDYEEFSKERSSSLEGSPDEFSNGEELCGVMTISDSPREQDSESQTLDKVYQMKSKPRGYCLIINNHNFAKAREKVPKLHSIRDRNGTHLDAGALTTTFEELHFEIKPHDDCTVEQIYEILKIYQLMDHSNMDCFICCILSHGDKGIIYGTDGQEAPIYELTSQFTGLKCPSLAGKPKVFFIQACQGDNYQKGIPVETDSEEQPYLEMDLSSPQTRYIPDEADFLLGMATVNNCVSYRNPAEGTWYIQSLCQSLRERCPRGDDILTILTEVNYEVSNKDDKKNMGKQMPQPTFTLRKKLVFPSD

CS(=O)(=O)O.NCCCn1ccc2ccccc21 [Compound 1, 3-(1H-indol-1-yl)propan-1-amine methanesulfonate]
inhibition of E6/caspase 8 binding (in words) (GST-E6/His-caspase 8): dose-dependent inhibition
inhibition of caspase 8/caspase 8 interaction (in words) [1]: able to inhibit the caspase 8/caspase 8 interaction
inhibition of E6/E6AP interaction (in words) (GST-E6/His-E6AP): could also inhibit the E6/E6AP interaction

c1ccc2[nH]cnc2c1 [Compound 2, benzimidazole]
inhibition of E6/caspase 8 binding (in words) (GST-E6/His-caspase 8): dose-dependent inhibition
inhibition of caspase 8/caspase 8 interaction (in words) [1]: able to inhibit the caspase 8/caspase 8 interaction
inhibition of E6/E6AP interaction (in words) (GST-E6/His-E6AP): could also inhibit the E6/E6AP interaction

COCc1nc2ccccc2[nH]1 [Compound 4, 2-(methoxymethyl)-1H-benzimidazole]
EC50 for GST-E6/His-caspase 8 interaction (GST-E6/His-caspase 8; [3]): No inhibition
EC50 for GST-caspase 8/His-caspase 8 interaction ([1]; compounds tested 1.4 μM to 3.2 mM): No inhibition
EC50 for GST-E6/His-E6AP interaction (GST-E6/His-E6AP; [3]): No inhibition

B1: TRAIL: tumor necrosis factor-related apoptosis-inducing ligand; extracellular domain of human TRAIL, His-tagged, expressed in E. coli (protein, UniProt P50591 39-281, looked up)
extracellular domain: TNELKQMQDKYSKSGIACFLKEDDSYWDPNDEESMNSPCWQVKWQLRQLVRKMILRTSEETISTVQEKQQNISPLVRERGPQRVAAHITGTRGRSNTLSSPNSKNEKALGRKINSWESSRSGHSFLSNLHLRNGELVIHEKGFYYIYSQTYFRFQEEIKENTKNDKQMVQYIYKYTSYPDPILLMKSARNSCWSKDAEYGLYSIYQGGIFELKENDRIFVSVTNEHLIDMDHEASFFGAFLVG
modifications: extracellular domain His tag
notes: tumor necrosis factor-related apoptosis-inducing ligand; extracellular domain of human TRAIL, His-tagged, expressed in E. coli
response of HNSCC cell lines to TRAIL alone (in words) [2]: resistance
response of cells to TRAIL alone (in words) (SiHa cells): relatively resistant
